How the values were obtained:
[1] = system: PBMCs of HLA-A2^+ healthy donors and prostate cancer patients; assay: Assay for peptide-specific CTLs in PBMCs (IFN-γ ELISA, peptide-pulsed T2 cells); type: cell-based, human; conditions: for INF-γ production: T2 cells
[2] = system: IgG in plasma of HLA-A2^+ healthy donors and prostate cancer patients; assay: Peptide-specific IgG in plasma by ELISA (HLA-A2-binding PTHrP peptides); set-up: species or system human; conditions: for IgG reactive to the peptide in plasma (difference of OD): 1:100-diluted plasma
Summary of the method: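 Plasma from HLA-A2+ donors and prostate cancer patients incubated 2 h at 37 °C on peptide-coated plates (20 μg/well); bound IgG detected by rabbit anti-human IgG (γ-chain), then HRP anti-rabbit, TMB.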

[3] = HLA-A2^+ prostate cancer patients

Sequence: TSTTSLELD [PTHrP 165-173, previously reported PTHrP peptide generating CTLs from HLA-A*0201 healthy donors [17], reference compound]
- INF-γ production ([1]; HLA-A2^+ healthy donor #1 (A0201)): 0 pg/mL
- INF-γ production ([1]; HLA-A2^+ healthy donor #2 (A0201)): 222 pg/mL
- INF-γ production ([1]; HLA-A2^+ healthy donor #3 (A0201)): 0 pg/mL
- INF-γ production ([1]; HLA-A2^+ healthy donor #4 (A0201)): 294 pg/mL
- INF-γ production ([1]; HLA-A2^+ healthy donor #5 (A0206)): 0 pg/mL
- INF-γ production ([1]; HLA-A2^+ healthy donor #6 (A0206)): 0 pg/mL
- INF-γ production ([1]; HLA-A2^+ healthy donor #7 (A0206)): 27 pg/mL
- INF-γ production ([1]; HLA-A2^+ healthy donor #8 (A0206)): 325 pg/mL
- INF-γ production ([1]; HLA-A2^+ healthy donor #9 (A0206)): 395 pg/mL
- INF-γ production ([1]; HLA-A2^+ healthy donor #10 (A0207)): 46 pg/mL
- induced peptide-specific CTLs, number of donors ([1]; HLA-A2^+ healthy donors): 4 of 10
- Total (donors with significant peptide-specific IFN-γ production / donors tested) ([1]; HLA-A2^+ healthy donors, p < 0.05): 4/10
- INF-γ production ([1]; HLA-A2^+ prostate cancer patient #1 (A0206)): 202 pg/mL
- INF-γ production ([1]; HLA-A2^+ prostate cancer patient #2 (A0210)): 26 pg/mL
- INF-γ production ([1]; HLA-A2^+ prostate cancer patient #3 (A0210)): 60 pg/mL
- INF-γ production ([1]; HLA-A2^+ prostate cancer patient #4 (A0206)): 151 pg/mL
- INF-γ production ([1]; HLA-A2^+ prostate cancer patient #5 (A0206)): 103 pg/mL
- INF-γ production ([1]; HLA-A2^+ prostate cancer patient #6 (A0207)): 0 pg/mL
- INF-γ production ([1]; HLA-A2^+ prostate cancer patient #7 (A0206)): 0 pg/mL
- INF-γ production ([1]; HLA-A2^+ prostate cancer patient #8 (A0206)): 80 pg/mL
- INF-γ production ([1]; HLA-A2^+ prostate cancer patient #9 (A0201)): 0 pg/mL
- INF-γ production ([1]; HLA-A2^+ prostate cancer patient #10 (A0201)): 24 pg/mL
- induced peptide-specific CTLs (peptide-specific IFN-γ production), number of patients [1, 3]: 3 of 10
- Total (patients with significant peptide-specific IFN-γ production / patients tested) ([1]; HLA-A2^+ prostate cancer patients, p < 0.05): 3/10
- IgG reactive to the peptide in plasma (difference of OD) ([2]; HLA-A2^+ healthy donor #1): — (IgG reactive to a corresponding peptide was judged to be positive when a difference of OD in a 1:100-diluted plasma was more than 0.054.)
- IgG reactive to the peptide in plasma (difference of OD) ([2]; HLA-A2^+ healthy donor #2): — (IgG reactive to a corresponding peptide was judged to be positive when a difference of OD in a 1:100-diluted plasma was more than 0.054.)
- IgG reactive to the peptide in plasma (difference of OD) ([2]; HLA-A2^+ healthy donor #3): — (IgG reactive to a corresponding peptide was judged to be positive when a difference of OD in a 1:100-diluted plasma was more than 0.054.)
- IgG reactive to the peptide in plasma (difference of OD) ([2]; HLA-A2^+ healthy donor #4): — (IgG reactive to a corresponding peptide was judged to be positive when a difference of OD in a 1:100-diluted plasma was more than 0.054.)
- IgG reactive to the peptide in plasma (difference of OD) ([2]; HLA-A2^+ healthy donor #5): — (IgG reactive to a corresponding peptide was judged to be positive when a difference of OD in a 1:100-diluted plasma was more than 0.054.)
- IgG reactive to the peptide in plasma (difference of OD) ([2]; HLA-A2^+ healthy donor #6): 0.0865 OD
- IgG reactive to the peptide in plasma (difference of OD) ([2]; HLA-A2^+ healthy donor #7): 0.089 OD
- IgG reactive to the peptide in plasma (difference of OD) ([2]; HLA-A2^+ healthy donor #8): 0.193 OD
- IgG reactive to the peptide in plasma (difference of OD) ([2]; HLA-A2^+ healthy donor #9): 0.0925 OD
- IgG reactive to the peptide in plasma (difference of OD) ([2]; HLA-A2^+ healthy donor #10): 0.099 OD
- Total (IgG-positive donors / donors tested) ([2]; HLA-A2^+ healthy donors): 5/10
- IgG reactive to the peptide in plasma (difference of OD) ([2]; HLA-A2^+ prostate cancer patient #1): — (IgG reactive to a corresponding peptide was judged to be positive when a difference of OD in a 1:100-diluted plasma was more than 0.054.)
- IgG reactive to the peptide in plasma (difference of OD) ([2]; HLA-A2^+ prostate cancer patient #2): — (IgG reactive to a corresponding peptide was judged to be positive when a difference of OD in a 1:100-diluted plasma was more than 0.054.)
- IgG reactive to the peptide in plasma (difference of OD) ([2]; HLA-A2^+ prostate cancer patient #3): 0.078 OD
- IgG reactive to the peptide in plasma (difference of OD) ([2]; HLA-A2^+ prostate cancer patient #4): — (IgG reactive to a corresponding peptide was judged to be positive when a difference of OD in a 1:100-diluted plasma was more than 0.054.)
- IgG reactive to the peptide in plasma (difference of OD) ([2]; HLA-A2^+ prostate cancer patient #5): — (IgG reactive to a corresponding peptide was judged to be positive when a difference of OD in a 1:100-diluted plasma was more than 0.054.)
- IgG reactive to the peptide in plasma (difference of OD) ([2]; HLA-A2^+ prostate cancer patient #6): — (IgG reactive to a corresponding peptide was judged to be positive when a difference of OD in a 1:100-diluted plasma was more than 0.054.)
- IgG reactive to the peptide in plasma (difference of OD) ([2]; HLA-A2^+ prostate cancer patient #7): — (IgG reactive to a corresponding peptide was judged to be positive when a difference of OD in a 1:100-diluted plasma was more than 0.054.)
- IgG reactive to the peptide in plasma (difference of OD) ([2]; HLA-A2^+ prostate cancer patient #8): — (IgG reactive to a corresponding peptide was judged to be positive when a difference of OD in a 1:100-diluted plasma was more than 0.054.)
- IgG reactive to the peptide in plasma (difference of OD) ([2]; HLA-A2^+ prostate cancer patient #9): — (IgG reactive to a corresponding peptide was judged to be positive when a difference of OD in a 1:100-diluted plasma was more than 0.054.)
- IgG reactive to the peptide in plasma (difference of OD) ([2]; HLA-A2^+ prostate cancer patient #10): 0.1515 OD
- Total (IgG-positive patients / patients tested) [2, 3]: 2/10

Source: US20080014186A1, “Hla-A24 or Hla-A2 Binding Peptides of Parathyroid Hormone-Related Protein” (GREEN PEPTIDE CO., LTD., priority 2004, published 2008)
